In paper PMC6718442, “11β-Hydroxysteroid dehydrogenases control access of 7β,27-dihydroxycholesterol to retinoid-related orphan receptor γ” (Journal of Lipid Research, 2019):
“And” between values parts separate entries of the source, which are not always exact repeats. Equal entries are not always repeated.

What was measured:
[1] = biological target: T1, mouse 11β-hsd1 (Mus musculus, UniProt P50172); experiment: Conversion of 7k27OHC by mouse 11β-hsd1 (data not shown)
T1 construct: expressed in transfected cells; host or cells: HEK-293
T1 sequence (P50172 whole entry): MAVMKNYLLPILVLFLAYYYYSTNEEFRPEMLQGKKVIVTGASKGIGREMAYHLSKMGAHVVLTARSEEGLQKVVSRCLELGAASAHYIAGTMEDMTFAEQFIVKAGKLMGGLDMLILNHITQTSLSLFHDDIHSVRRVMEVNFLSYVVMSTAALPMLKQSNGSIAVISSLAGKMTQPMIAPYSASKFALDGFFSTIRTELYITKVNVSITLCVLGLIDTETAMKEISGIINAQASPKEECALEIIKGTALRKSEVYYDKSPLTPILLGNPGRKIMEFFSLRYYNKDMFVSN

[2] = biological target: T2, 11β-HSD2 (Homo sapiens, UniProt P80365); experiment: 11β-HSD2-dependent metabolism of 7-oxygenated 27OHCs in intact HEK-293 cells expressing 11β-HSD2; format: cell-based; conditions: for Metabolism by 11β-HSD2 in intact cells (in words): 500 nM substrate, 30 min
T2 construct: expressed in transfected cells
T2 sequence (P80365 1-405): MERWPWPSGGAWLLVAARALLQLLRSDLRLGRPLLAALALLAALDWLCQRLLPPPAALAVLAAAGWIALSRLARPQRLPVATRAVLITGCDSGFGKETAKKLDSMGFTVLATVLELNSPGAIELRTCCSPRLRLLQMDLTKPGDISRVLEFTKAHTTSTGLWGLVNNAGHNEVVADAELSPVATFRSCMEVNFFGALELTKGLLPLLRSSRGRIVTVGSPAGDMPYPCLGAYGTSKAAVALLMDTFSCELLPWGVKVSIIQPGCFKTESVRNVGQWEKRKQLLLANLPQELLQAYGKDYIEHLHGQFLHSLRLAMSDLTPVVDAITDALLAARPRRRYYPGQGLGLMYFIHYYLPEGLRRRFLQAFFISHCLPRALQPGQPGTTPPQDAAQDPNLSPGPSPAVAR
Protocol: Fifty thousand stably transfected HEK-293 cells expressing either 11β-HSD2 [clone AT8 ([34])] or 11β-HSD1 and hexose-6-phosphate dehydrogenase (H6PDH) [clone HHH7 ([35])] were seeded in poly-L-lysine-coated 96-well plates and incubated for 24 h. H6PDH provides the cofactor NADPH and is required for an efficient oxoreduction reaction by 11β-HSD1 ([36]). The medium was changed to steroid- and phenol red-free DMEM (DMEM SF) for another 2 h and the cells were then treated with 1 μM of 7k27OHC in the presence or absence of 1 μM of T0504 (to inhibit 11β-HSD1) or 0.5 μM of 7β27OHC or 7α27OHC in the presence or absence of 5 μM of glycyrrhetinic acid (GA) (to inhibit 11β-HSD2). Metabolic conversion was determined after 0.5 h for 11β-HSD2 and after 1 h for 11β-HSD1.
Ice-cold acetonitrile:isopropanol (7:3, v/v) mixture containing either 100 nM deuterium-labeled 7β27OHC or corticosterone as internal standards were used to extract oxysterols from cell culture supernatants. Additionally, 1.5% (v/v) of a standard solution of the antioxidant butylated hydroxytoluene (BHT) and the peroxide reducing agent triphenylphosphine (TPP) (10 mg BHT and 25 mg TPP in 10 ml ethanol) was added ([37]). In experiments with SW-620 cells, oxysterols were extracted from cell supernatants and cells. The samples were incubated for 30 min at 4°C and 700 rotations per minute, centrifuged (16,000 g, 10 min, 4°C), and the supernatant evaporated to dryness under nitrogen to minimize oxidation from atmospheric oxygen. After reconstitution in 50 μl of methanol:ultra-pure water (1:1, v/v), the samples were again centrifuged (16,000 g, 10 min, 4°C) and the supernatants analyzed. Data (mean ± SD) were obtained from three independent experiments.
An Agilent 1290 Infinity UHPLC binary solvent delivery system including a temperature controlled autosampler and a column oven coupled to an Agilent 6490 triple quadrupole mass spectrometer with a jet stream electrospray ionization interface (AJS-ESI) (Agilent Technologies) was used to analyze oxysterols. […]

SMILES | Conversion by mouse 11β-hsd1 (in words) [1] | Metabolism by 11β-HSD2 in intact cells (in words) [2] | Vapp cell intact ([2]; intact HEK-293 cells, substrate concentration 500 nM)
CC(CO)CCC[C@@H](C)[C@H]1CC[C@H]2[C@@H]3C(=O)C=C4C[C@@H](O)CC[C@]4(C)[C@H]3CC[C@]12C (stereo partly shown) [7k27OHC, 7-keto,27-hydroxycholesterol] | exclusive conversion of 7k27OHC to 7β27OHC without the formation 7α27OHC | – | –
CC(CO)CCC[C@@H](C)[C@H]1CC[C@H]2[C@@H]3[C@@H](O)C=C4C[C@@H](O)CC[C@]4(C)[C@H]3CC[C@]12C (stereo partly drawn) [7β27OHC, 7β,27-dihydroxycholesterol] | – | exclusive oxidation of 7β27OHC to 7k27OHC | 0.6 ± 0.1 nmol·h^−1·mg total protein^−1 and 0.6 ± 0.1^b nmol·h^−1·mg total protein^−1
C[C@@H](CO)CCC[C@@H](C)[C@H]1CC[C@H]2[C@@H]3[C@H](O)C=C4C[C@@H](O)CC[C@]4(C)[C@H]3CC[C@]12C [7α27OHC] | – | lack of 7α27OHC metabolism | –
